# Key:
# [1] = tested on: mixture of 8 mature sporulated strains (E. mitis, E. hagani, E. praecox, E. acervulina, E. maxima, E. necatrix, E. tenella and E. brunetti); assay: Prophylactic anticoccidial evaluation in chickens of Arbor Aker breed; format: in vivo, chicken; details: 100 ppm in feed from day 3 after hatch, infected orally day 7
# Experimental: (§1) The antiparasitic activity of the present compounds as prophylactic agents was evaluated in vivo on 100 one day old (1 day after hatch) chickens of Habbared X breed. The chickens were divided into five groups of 20 birds each, and each group was located in a separate pen (1 m×1 m). The chickens were then fed with unmedicated food up to day 7 after hatch. Fresh water was supplied ad libitum.
# (§2) On day 8 after hatch, the five groups were given feed containing the following compounds (1 ppm=1 mg drug/kg feed): • Group #1: B49 (100 ppm); • Group #2: B42 (150 ppm); • Group #3: B46 (100 ppm); • Group #4: Coxistac (60 ppm), a known anticoccidial agent (see U.S. Pat. No. 3,857,948); • Group #5: no drug content (control group).
# (§3) The chickens were fed as above on day 8 and 9 after hatch. On day 10 after hatch, each chicken was infected orally by 6 000-7 000 oocysts containing a mixture of 5 mature sporulated strains, namely E. acervulina, E. maxima, E. necatrix, E. tenella and E. brunetti. The groups #1-4 received drug as above from day 10 to 21 after hatch.
# (§4) From day 14 to 21 after hatch, fresh fecal droplets were collected and examined daily. The average number of oocysts/g faeces was then calculated in accordance with the co-called Mc-Master technique (Soulsby, 1984).
# Moreover, the prophylactic anticoccidial effect of B42, B49 and B51 was also evaluated in chickens of Arbor Aker breed. These trials were conducted by using basically the same test protocol as that used for the chickens of Habbared X breed, albeit with the following modifications: • i) On day 3 after hatch, the tested groups of chickens receieved feed containing 100 ppm of B42, B49, B51 or Coxistac (60 ppm); • ii) On day 7 after hatch, the chickens were infected orally by oocysts containing a mixture of 8 mature sporulated strains, namely E. mitis, E. hagani, E. praecox, E. acervulina, E. maxima, E. necatrix, E. tenella and E. brunetti.
# [2] = tested on: Eimeria spp. (E. acervulina, E. maxima, E. necatrix, E. tenella and E. brunetti); assay: Prophylactic anticoccidial evaluation in vivo in chickens of Habbared X breed, drug in feed; design: species or system chicken; details: for duration of the anticoccidial infection as compared to Coxistac: B49 100 ppm, B42 150 ppm vs Coxistac 60 ppm; for Average number of Eimeria spp. oocysts/g faeces, day after hatch 14: day 14 after hatch; for Average number of Eimeria spp. oocysts/g faeces, day after hatch 14 / Average number of Eimeria spp. oocysts/g faeces, day after hatch 15 / Average number of Eimeria spp. oocysts/g faeces, day after hatch 16 / Average number of Eimeria spp. oocysts/g faeces, day after hatch 17 / Average number of Eimeria spp. oocysts/g faeces, day after hatch 18 / Average number of Eimeria spp. oocysts/g faeces, day after hatch 19 / Average number of Eimeria spp. oocysts/g faeces, day after hatch 21: infected orally day 10; for Average number of Eimeria spp. oocysts/g faeces, day after hatch 14 / Average number of Eimeria spp. oocysts/g faeces, day after hatch 15 / Average number of Eimeria spp. oocysts/g faeces, day after hatch 16 / Average number of Eimeria spp. oocysts/g faeces, day after hatch 17 / Average number of Eimeria spp. oocysts/g faeces, day after hatch 18 / Average number of Eimeria spp. oocysts/g faeces, day after hatch 19 / Average number of Eimeria spp. oocysts/g faeces, day after hatch 21 / Mean body weight / Mean amount of feed consumed / Average number of Eimeria spp. oocysts/g faeces, Total: in feed B49 100 ppm, B42 150 ppm, B46 100 ppm, Coxistac 60 ppm; for Average number of Eimeria spp. oocysts/g faeces, day after hatch 15: day 15 after hatch; for Average number of Eimeria spp. oocysts/g faeces, day after hatch 16: day 16 after hatch; for Average number of Eimeria spp. oocysts/g faeces, day after hatch 17: day 17 after hatch; for Average number of Eimeria spp. oocysts/g faeces, day after hatch 18: day 18 after hatch; for Average number of Eimeria spp. oocysts/g faeces, day after hatch 19: day 19 after hatch; for Average number of Eimeria spp. oocysts/g faeces, day after hatch 21: day 21 after hatch; for Mean body weight: final weight; for Mean amount of feed consumed: mean total amount per bird; for Average number of Eimeria spp. oocysts/g faeces, Total: total of days 14 to 21 after hatch
# Experimental: as §1, §2, §3, §4
compound,measurement,setting,value
"O=C(O)c1cc(I)c(NC(=S)Nc2ccccc2)c(I)c1 [Compound B49, 4-[(anilinocarbothioyl)amino]-3,5-diiodobenzoic acid]","prophylactic anticoccidial effect, results in words",[1],essentially the same as those reported for the trials with the chickens of Habbared X breed
same,duration of the anticoccidial infection as compared to Coxistac,[2]; Habbared X chickens,shorter
same,"Average number of Eimeria spp. oocysts/g faeces, day after hatch 14",[2],0.0 oocysts/g faeces
same,"Average number of Eimeria spp. oocysts/g faeces, day after hatch 15",[2],3000 oocysts/g faeces
same,"Average number of Eimeria spp. oocysts/g faeces, day after hatch 16",[2],10000 oocysts/g faeces
same,"Average number of Eimeria spp. oocysts/g faeces, day after hatch 17",[2],20000 oocysts/g faeces
same,"Average number of Eimeria spp. oocysts/g faeces, day after hatch 18",[2],0.0 oocysts/g faeces
same,"Average number of Eimeria spp. oocysts/g faeces, day after hatch 19",[2],0.0 oocysts/g faeces
same,"Average number of Eimeria spp. oocysts/g faeces, day after hatch 21",[2],0.0 oocysts/g faeces
same,Mean body weight,[2],66.0 g
same,Mean amount of feed consumed,[2],95 g
same,"Average number of Eimeria spp. oocysts/g faeces, Total",[2],33000 oocysts/g faeces
"CC[C@@H](C(=O)[C@@H](C)[C@@H](O)[C@H](C)[C@@H]1O[C@@H]([C@@H](CC)C(=O)O)CC[C@@H]1C)[C@H]1O[C@]2(C=C[C@@H](O)[C@]3(CC[C@@](C)([C@H]4CC[C@](O)(CC)[C@H](C)O4)O3)O2)[C@H](C)C[C@@H]1C [Coxistac, reference compound]","Average number of Eimeria spp. oocysts/g faeces, day after hatch 14",[2],0.0 oocysts/g faeces
same,"Average number of Eimeria spp. oocysts/g faeces, day after hatch 15",[2],3000 oocysts/g faeces
same,"Average number of Eimeria spp. oocysts/g faeces, day after hatch 16",[2],4000 oocysts/g faeces
same,"Average number of Eimeria spp. oocysts/g faeces, day after hatch 17",[2],7000 oocysts/g faeces
same,"Average number of Eimeria spp. oocysts/g faeces, day after hatch 18",[2],2000 oocysts/g faeces
same,"Average number of Eimeria spp. oocysts/g faeces, day after hatch 19",[2],2000 oocysts/g faeces
same,"Average number of Eimeria spp. oocysts/g faeces, day after hatch 21",[2],0.0 oocysts/g faeces
same,Mean body weight,[2],62.0 g
same,Mean amount of feed consumed,[2],120 g
same,"Average number of Eimeria spp. oocysts/g faeces, Total",[2],18000 oocysts/g faeces
4-nitro-N-{[4-({4-nitro[(4-nitrophenyl)sulfonyl]anilino}-carbothioyl)-1-piperazinyl]carbothioyl}-N-(4-nitrophenyl)benzenesulfonamide [Compound B46],feed consumption lower in comparison with the Coxistac treated group,"[2]; Habbared X chickens, B46 100 ppm vs Coxistac 60 ppm",~67%
same,body weight gain,"[2]; Habbared X chickens, feed containing B46 100 ppm",fair body weight gain
same,"Average number of Eimeria spp. oocysts/g faeces, day after hatch 14",[2],0.0 oocysts/g faeces
same,"Average number of Eimeria spp. oocysts/g faeces, day after hatch 15",[2],3000 oocysts/g faeces
same,"Average number of Eimeria spp. oocysts/g faeces, day after hatch 16",[2],14000 oocysts/g faeces
same,"Average number of Eimeria spp. oocysts/g faeces, day after hatch 17",[2],99000 oocysts/g faeces
same,"Average number of Eimeria spp. oocysts/g faeces, day after hatch 18",[2],6000 oocysts/g faeces
same,"Average number of Eimeria spp. oocysts/g faeces, day after hatch 19",[2],0.0 oocysts/g faeces
same,"Average number of Eimeria spp. oocysts/g faeces, day after hatch 21",[2],0.0 oocysts/g faeces
same,Mean body weight,[2],54.5 g
same,Mean amount of feed consumed,[2],39.3 g
same,"Average number of Eimeria spp. oocysts/g faeces, Total",[2],122000 oocysts/g faeces
"O=[N+]([O-])c1ccc(S(=O)(=O)N(C(=S)N(c2nc3ccc([N+](=O)[O-])cc3s2)S(=O)(=O)c2ccc([N+](=O)[O-])cc2)c2ccc(F)cc2)cc1 [Compound B42, N-(4-fluorophenyl)-4-nitro-N-({(6-nitro-1,3-benzothiazol-2-yl)[(4-nitrophenyl)sulfonyl]amino}carbothioyl)benzene-sulfonamide]","prophylactic anticoccidial effect, results in words",[1],essentially the same as those reported for the trials with the chickens of Habbared X breed
same,duration of the anticoccidial infection as compared to Coxistac,[2]; Habbared X chickens,shorter
same,"Average number of Eimeria spp. oocysts/g faeces, day after hatch 14",[2],0.0 oocysts/g faeces
same,"Average number of Eimeria spp. oocysts/g faeces, day after hatch 15",[2],0.0 oocysts/g faeces
same,"Average number of Eimeria spp. oocysts/g faeces, day after hatch 16",[2],3000 oocysts/g faeces
same,"Average number of Eimeria spp. oocysts/g faeces, day after hatch 17",[2],7000 oocysts/g faeces
same,"Average number of Eimeria spp. oocysts/g faeces, day after hatch 18",[2],0.0 oocysts/g faeces
same,"Average number of Eimeria spp. oocysts/g faeces, day after hatch 19",[2],0.0 oocysts/g faeces
same,"Average number of Eimeria spp. oocysts/g faeces, day after hatch 21",[2],0.0 oocysts/g faeces
same,Mean body weight,[2],61.0 g
same,Mean amount of feed consumed,[2],93 g
same,"Average number of Eimeria spp. oocysts/g faeces, Total",[2],10000 oocysts/g faeces
"N#Cc1ccc(NC(=S)Nc2ccc([N+](=O)[O-])cc2)cc1 [Compound B51, N-(4-cyanophenyl)-N′-(4-nitrophenyl) thiourea]","prophylactic anticoccidial effect, results in words",[1],comparable with those of B42
